Source: BindingDB's records for doi:10.1016/j.bmcl.2012.08.020 (Amgen, 2012)

test: Inhibition of ACK1 in mouse C8 cells assessed as decrease in cell viability after 20 to 24 hrs

SMILES | IC50 [nM]
Cc1ccccc1-c1c(-c2ccc(OCCN3CCCC3)cc2)[nH]c2ncnc(NC[C@@H]3CCCO3)c12 | 160
Fc1ccccc1-c1c(-c2ccc(OCCN3CCCC3)cc2)[nH]c2ncnc(NC[C@@H]3CCCO3)c12 | 40
CN(C)CCOc1ccc(-c2[nH]c3ncnc(NCC4SCCS4)c3c2-c2ccccc2)cc1 | 5
CN(C)CCOc1ccc(-c2oc3ncnc(NCC4SCCS4)c3c2-c2ccccc2)cc1 | 10
c1ccc(-c2c(-c3ccc(OCCN4CCCC4)cc3)[nH]c3ncnc(NCC4SCCS4)c23)cc1 | 10
CN(C)CCOc1ccc(-c2oc3ncnc(NCC4CCCS4)c3c2-c2ccccc2)cc1 (stereo not given) | 3000
CN(C)CCOc1ccc(-c2oc3ncnc(NCC4OCCO4)c3c2-c2ccccc2)cc1 | 2000
CN(C)CCOc1ccc(-c2oc3ncnc(NC[C@@H]4CCCCS4)c3c2-c2ccccc2)cc1 | 7160
CN(C)CCOc1ccc(-c2oc3ncnc(NCC4SCCCS4)c3c2-c2ccccc2)cc1 | 550
CN(C)CCOc1ccc(-c2[nH]c3ncnc(NC[C@@H]4CC[C@H]4O)c3c2-c2ccccc2)cc1 | 410
CN(C)CCOc1ccc(-c2[nH]c3ncnc(NC[C@H]4CCC[C@H]4O)c3c2-c2ccccc2)cc1 | 460
CO[C@@H]1CCC[C@@H]1CNc1ncnc2[nH]c(-c3ccc(OCCN(C)C)cc3)c(-c3ccccc3)c12 | 780
CO[C@@H]1CCC[C@H]1CNc1ncnc2[nH]c(-c3ccc(OCCN(C)C)cc3)c(-c3ccccc3)c12 | 1300
c1cncc(-c2c(-c3ccc(OCCN4CCCC4)cc3)[nH]c3ncnc(NC[C@@H]4CCCO4)c23)c1 | 390
COc1cccc(-c2c(-c3ccc(OCCN4CCCC4)cc3)[nH]c3ncnc(NC[C@@H]4CCCO4)c23)c1 | 160
c1ccc(-c2[nH]c3ncnc(NC[C@@H]4CCCO4)c3c2-c2ccccc2)cc1 | 620
COc1ccc(-c2oc3ncnc(NC[C@@H]4CCCO4)c3c2-c2ccccc2)cc1 | 550
COc1ccc(-c2[nH]c3ncnc(NC[C@@H]4CCCO4)c3c2-c2ccccc2)cc1 | 350
CS(=O)(=O)c1ccc(-c2oc3ncnc(NC[C@@H]4CCCO4)c3c2-c2ccccc2)cc1 | 250
CS(=O)(=O)c1ccc(-c2[nH]c3ncnc(NC[C@@H]4CCCO4)c3c2-c2ccccc2)cc1 | 100

SMILES | IC50 [nM]
CN(C)S(=O)(=O)c1ccc(-c2[nH]c3ncnc(NC[C@@H]4CCCO4)c3c2-c2ccccc2)cc1 | 90
CNS(=O)(=O)c1ccc(-c2oc3ncnc(NC[C@@H]4CCCO4)c3c2-c2ccccc2)cc1 | 300
CNS(=O)(=O)c1ccc(-c2[nH]c3ncnc(NC[C@@H]4CCCO4)c3c2-c2ccccc2)cc1 | 40
CN(C)CCOc1ccc(-c2[nH]c3ncnc(NC[C@@H]4CCCO4)c3c2-c2ccccc2)cc1 | 20
c1ccc(-c2c(-c3ccc(OCCN4CCOCC4)cc3)oc3ncnc(NC[C@@H]4CCCO4)c23)cc1 | 160
c1ccc(-c2c(-c3ccc(OCCN4CCOCC4)cc3)[nH]c3ncnc(NC[C@@H]4CCCO4)c23)cc1 | 80
c1ccc(-c2c(-c3ccc(OCCN4CCCC4)cc3)[nH]c3ncnc(NC[C@@H]4CCCO4)c23)cc1 | 60
O=C1CCCN1CCOc1ccc(-c2oc3ncnc(NC[C@@H]4CCCO4)c3c2-c2ccccc2)cc1 | 230
O=C1CCCN1CCOc1ccc(-c2[nH]c3ncnc(NC[C@@H]4CCCO4)c3c2-c2ccccc2)cc1 | 20
CN(C)C(=O)c1ccc(-c2oc3ncnc(NC[C@@H]4CCCO4)c3c2-c2ccccc2)cc1 | 180
CN(C)C(=O)c1ccc(-c2[nH]c3ncnc(NC[C@@H]4CCCO4)c3c2-c2ccccc2)cc1 | 20
CNC(=O)c1ccc(-c2[nH]c3ncnc(NC[C@@H]4CCCO4)c3c2-c2ccccc2)cc1 | 40
O=C(c1ccc(-c2oc3ncnc(NC[C@@H]4CCCO4)c3c2-c2ccccc2)cc1)N1CCOCC1 | 190
O=C(c1ccc(-c2[nH]c3ncnc(NC[C@@H]4CCCO4)c3c2-c2ccccc2)cc1)N1CCOCC1 | 20
CN(C)CCOc1ccc(-c2[nH]c3ncnc(NC[C@@H]4CCCO4)c3c2C2=CCCCC2)cc1 | 500
CN(C)CCOc1ccc(-c2[nH]c3ncnc(NC[C@@H]4CCCO4)c3c2C2=CCCC2)cc1 | 240
CO[C@@H]1CC[C@H]1CNc1ncnc2[nH]c(-c3ccc(OCCN(C)C)cc3)c(-c3ccccc3)c12 | 420
CNC(=O)c1ccc(-c2oc3ncnc(NC[C@@H]4CCCO4)c3c2-c2ccccc2)cc1 | 2050
CN(C)CCOc1ccc(-c2oc3ncnc(NC[C@@H]4CCCO4)c3c2-c2ccccc2)cc1 [(S)-6-(4-(2-(dimethylamino)ethoxy)phenyl)-5-phenyl-N-((tetrahydrofuran-2-yl)methyl)furo[2,3-d]pyrimidin-4-amine] | 30
c1ccc(-c2oc3nccc(NC[C@@H]4CCCO4)c3c2-c2ccccc2)cc1 [N-[(2S)-oxolan-2-ylmethyl]-2,3-diphenylfuro[2,3-b]pyridin-4-amine] | 5600
